Test results as given in ChEMBL document CHEMBL1697731, “Cheminformatics analysis of assertions mined from literature that describe drug-induced liver injury in different species” (Chem Res Toxicol, 2010).

How the values were obtained:
[1] = tested on: Hepatotoxicity; assay: Literature-mined compound from Fourches et al multi-species drug-induced liver injury (DILI) dataset, effect in rodents; conditions: rodentia
[2] = tested on: Hepatotoxicity; assay: Literature-mined compound from Fourches et al multi-species drug-induced liver injury (DILI) dataset, effect in non-rodents
[3] = tested on: Hepatotoxicity; assay: Literature-mined compound from Fourches et al multi-species drug-induced liver injury (DILI) dataset, effect in humans; conditions: human

| Compound | Hepatotoxicity [1] | Hepatotoxicity [2] | Hepatotoxicity [3] | Hepatotoxicity ([1]; Liver) | Hepatotoxicity ([2]; Liver) | Hepatotoxicity ([3]; Liver) |
| --- | --- | --- | --- | --- | --- | --- |
| OCC(O)CO [GLYCERIN] | drug-induced liver injury reported | drug-induced liver injury reported | drug-induced liver injury reported | – | – | – |
| Cc1cc2c(C(C)C)c(O)c(O)c(C=O)c2c(O)c1-c1c(C)cc2c(C(C)C)c(O)c(O)c(C=O)c2c1O [GOSSYPOL] | drug-induced liver injury reported | no drug-induced liver injury reported | drug-induced liver injury reported | – | – | – |
| COC1=CC(=O)C[C@@H](C)[C@]12Oc1c(Cl)c(OC)cc(OC)c1C2=O [GRISEOFULVIN] | drug-induced liver injury reported | no drug-induced liver injury reported | drug-induced liver injury reported | – | – | – |
| Cc1ccc(C(C)C)cc2c(C)ccc1-2 [GUAIAZULEN] | drug-induced liver injury reported | no drug-induced liver injury reported | no drug-induced liver injury reported | – | – | – |
| CC(=O)O.N=C(N)N/N=C/c1c(Cl)cccc1Cl [GUANABENZ ACETATE] | drug-induced liver injury reported | no drug-induced liver injury reported | no drug-induced liver injury reported | – | – | – |
| Cl.N=C(N)N [GUANIDINE HYDROCHLORIDE] | drug-induced liver injury reported | no drug-induced liver injury reported | drug-induced liver injury reported | – | – | – |
| CC1=C(CCC(=O)O)c2cc3nc(cc4[nH]c(cc5[nH]c(cc1n2)c(C)c5C(C)O)c(C)c4C(C)O)C(C)=C3CCC(=O)O (centres undefined) [HAEMAPORPHYRIN] | drug-induced liver injury reported | no drug-induced liver injury reported | no drug-induced liver injury reported | – | – | – |
| O=C(CC1NCCCC1O)Cn1cnc2cc(Br)c(Cl)cc2c1=O (centres undefined) [HALOFUGINONE] | drug-induced liver injury reported | no drug-induced liver injury reported | drug-induced liver injury reported | – | – | – |
| O=C(CCCN1CCC(O)(c2ccc(Cl)cc2)CC1)c1ccc(F)cc1 [HALOPERIDOL] | drug-induced liver injury reported | drug-induced liver injury reported | drug-induced liver injury reported | – | – | – |
| FC(F)(F)C(Cl)Br (centres undefined) [HALOTHANE] | drug-induced liver injury reported | drug-induced liver injury reported | drug-induced liver injury reported | – | – | – |
| COc1ccc([C@@H]2CC(=O)c3c(O)cc(O[C@@H]4O[C@H](CO[C@@H]5O[C@@H](C)[C@H](O)[C@@H](O)[C@H]5O)[C@@H](O)[C@H](O)[C@H]4O)cc3O2)cc1O [HESPERIDIN] | drug-induced liver injury reported | no drug-induced liver injury reported | drug-induced liver injury reported | – | – | – |
| Oc1c(Cl)cc(Cl)c(Cl)c1Cc1c(O)c(Cl)cc(Cl)c1Cl [HEXACHLOROPHENE] | drug-induced liver injury reported | no drug-induced liver injury reported | no drug-induced liver injury reported | – | – | – |
| CC[C@H](c1ccc(O)cc1)[C@@H](CC)c1ccc(O)cc1 [HEXESTROL] | drug-induced liver injury reported | no drug-induced liver injury reported | no drug-induced liver injury reported | – | – | – |
| CCCCC(CC)CN1CN(CC(CC)CCCC)CC(C)(N)C1 (centres undefined) [HEXETIDINE] | drug-induced liver injury reported | no drug-induced liver injury reported | no drug-induced liver injury reported | – | – | – |
| CN1C(=O)NC(=O)C(C)(C2=CCCCC2)C1=O (centres undefined) [HEXOBARBITAL] | drug-induced liver injury reported | no drug-induced liver injury reported | no drug-induced liver injury reported | – | – | – |
| Cl.Cl.NCCc1c[nH]cn1 [HISTAMINE DIHYDROCHLORIDE] | – | – | – | drug-induced liver injury reported | no drug-induced liver injury reported | no drug-induced liver injury reported |
| NNc1nncc2ccccc12 [HYDRALAZINE] | – | – | – | drug-induced liver injury reported | drug-induced liver injury reported | drug-induced liver injury reported |
| NS(=O)(=O)c1cc2c(cc1Cl)NCNS2(=O)=O [HYDROCHLOROTHIAZIDE] | no drug-induced liver injury reported | no drug-induced liver injury reported | drug-induced liver injury reported | – | – | – |
| CC(=O)OCC(=O)[C@@]1(O)CC[C@H]2[C@@H]3CCC4=CC(=O)CC[C@]4(C)[C@H]3[C@@H](O)C[C@@]21C [HYDROCORTISONE ACETATE] | drug-induced liver injury reported | no drug-induced liver injury reported | no drug-induced liver injury reported | – | – | – |

| Compound | Hepatotoxicity [1] | Hepatotoxicity [2] | Hepatotoxicity [3] | Hepatotoxicity ([1]; Liver) | Hepatotoxicity ([2]; Liver) | Hepatotoxicity ([3]; Liver) |
| --- | --- | --- | --- | --- | --- | --- |
| C[C@]12CCC(=O)C=C1CC[C@@H]1[C@@H]2[C@@H](O)C[C@@]2(C)[C@H]1CC[C@]2(O)C(=O)CO [HYDROCORTISONE] | drug-induced liver injury reported | drug-induced liver injury reported | drug-induced liver injury reported | – | – | – |
| Oc1ccc(O)cc1 [HYDROQUINONE] | – | – | – | drug-induced liver injury reported | no drug-induced liver injury reported | drug-induced liver injury reported |
| NC(=O)NO [HYDROXYUREA] | drug-induced liver injury reported | no drug-induced liver injury reported | drug-induced liver injury reported | – | – | – |
| OCCOCCN1CCN(C(c2ccccc2)c2ccc(Cl)cc2)CC1 (centres undefined) [HYDROXYZINE] | no drug-induced liver injury reported | no drug-induced liver injury reported | drug-induced liver injury reported | – | – | – |
| CNC(=O)[C@H]1O[C@@H](n2cnc3c(NCc4cccc(I)c4)ncnc32)[C@H](O)[C@@H]1O [IB-MECA] | drug-induced liver injury reported | no drug-induced liver injury reported | no drug-induced liver injury reported | – | – | – |
| CC(C)Cc1ccc(C(C)C(=O)O)cc1 (centres undefined) [IBUPROFEN] | drug-induced liver injury reported | no drug-induced liver injury reported | drug-induced liver injury reported | – | – | – |
| CC/C=C\C/C=C\C/C=C\C/C=C\C/C=C\CCCC(=O)O [ICOSAPENT] | drug-induced liver injury reported | no drug-induced liver injury reported | drug-induced liver injury reported | – | – | – |
| COC1=C(OC)C(=O)C(CCCCCCCCCCO)=C(C)C1=O [IDEBENONE] | drug-induced liver injury reported | no drug-induced liver injury reported | no drug-induced liver injury reported | – | – | – |
| CC/C(=C(\c1ccc(I)cc1)c1ccc(OCCN2CCCC2)cc1)c1ccccc1 [IDOXIFENE] | drug-induced liver injury reported | no drug-induced liver injury reported | no drug-induced liver injury reported | – | – | – |
| O=P1(NCCCl)OCCCN1CCCl (centres undefined) [IFOSFAMIDE] | no drug-induced liver injury reported | no drug-induced liver injury reported | drug-induced liver injury reported | – | – | – |
| CNC(=O)[C@H](Cc1c[nH]c2ccccc12)NC(=O)[C@@H](CC(=O)NO)CC(C)C [ILOMASTAT] | drug-induced liver injury reported | no drug-induced liver injury reported | no drug-induced liver injury reported | – | – | – |
| CC#CCC(C)[C@H](O)/C=C/[C@@H]1[C@H]2C/C(=C/CCCC(=O)O)C[C@H]2C[C@H]1O (some centres undefined) [ILOPROST] | drug-induced liver injury reported | no drug-induced liver injury reported | no drug-induced liver injury reported | – | – | – |
| CS(=O)(=O)O.Cc1ccc(NC(=O)c2ccc(CN3CCN(C)CC3)cc2)cc1Nc1nccc(-c2cccnc2)n1 [IMATINIB MESYLATE] | drug-induced liver injury reported | no drug-induced liver injury reported | drug-induced liver injury reported | – | – | – |
| CN(C)CCCN1c2ccccc2CCc2ccccc21 [IMIPRAMINE] | drug-induced liver injury reported | no drug-induced liver injury reported | drug-induced liver injury reported | – | – | – |
| C#CC1(O)CCC2C3CCC4=CC(=O)CCC4C3C(=C)CC21CC (centres undefined) [IMPLANON] | no drug-induced liver injury reported | no drug-induced liver injury reported | drug-induced liver injury reported | – | – | – |
| Nc1cc(-c2ccncc2)c[nH]c1=O [INAMRINONE] | drug-induced liver injury reported | no drug-induced liver injury reported | no drug-induced liver injury reported | – | – | – |
| CC1Cc2ccccc2N1NC(=O)c1ccc(Cl)c(S(N)(=O)=O)c1 (centres undefined) [INDAPAMIDE] | drug-induced liver injury reported | no drug-induced liver injury reported | no drug-induced liver injury reported | – | – | – |
| CC1(C)C(/C=C/C=C/C=C/C=C2/N(CCCCS(=O)(=O)[O-])c3ccc4ccccc4c3C2(C)C)=[N+](CCCCS(=O)(=O)[O-])c2ccc3ccccc3c21.[Na+] [INDOCYANINE GREEN] | drug-induced liver injury reported | no drug-induced liver injury reported | no drug-induced liver injury reported | – | – | – |
| COc1ccc2c(c1)c(CC(=O)O)c(C)n2C(=O)c1ccc(Cl)cc1 [INDOMETHACIN] | drug-induced liver injury reported | drug-induced liver injury reported | drug-induced liver injury reported | – | – | – |
